According to patent publication US5444043A, “Cyclic heptapeptide anti-inflammatory agent” (The Regents of the University of California, priority 1994, dated 1995):

Experiments:
Format in all cases: in vivo
[1] = tested on: phorbol-induced inflammation (edema) of mouse ears; test: Inhibition of phorbol (PMA)-induced mouse ear edema, standard protocol (topical); details: for Inhibition of Mouse Ear Edema: 3 h 20 min, relative to PMA control
Description: (§1) Cyclomarin-A was tested by measuring inhibition of phorbol-induced inflammation (edema) of mouse ears. […] The compound is topically applied in acetone to the inside pinnae of the ears of mice in a solution containing the edema-causing irritant, i.e. phorbol 12-myristate 13-acetate (PMA). PMA alone (2 microgram per ear) or in combination with varying amounts of cyclomarin-A was applied to the left ears of (5 mice per treatment group). Acetone was applied to all right ears. After a 3-hour and 20-minute incubation at 23° C., the mice were sacrificed, the ears removed and bores taken and weighed. Edema was measured by subtracting the weight of the right ear (acetone control) from the weight of the left ear (treated). The results were recorded as a percent decrease (inhibition) or percent increase (potentiation) in edema relative to the PMA control group edema.

[2] = tested on: phorbol-induced inflammation (edema) of mouse ears; test: Inhibition of mouse ear edema, time of addition study; details: 50 ug/ear
Description: as §1, with “The compound is topically applied in acetone to the inside pinnae of the ears of mice in a solution containing the edema-causing irritant, i.e. phorbol 12-myristate 13-acetate (PMA).” left out

[3] = tested on: phorbol-induced inflammation (edema) of mouse ears; test: Inhibition of mouse ear edema, systemic study (IP); details: 1 hour prior

Substance: cyclomarin-A
- Inhibition of Mouse Ear Edema ([1]; 5 ug/ear topical with PMA 2 microgram per ear): 3.0%
- Inhibition of Mouse Ear Edema ([1]; 10 ug/ear topical with PMA 2 microgram per ear): 39.0%
- Inhibition of Mouse Ear Edema ([1]; 25 ug/ear topical with PMA 2 microgram per ear): 57.0%
- Inhibition of Mouse Ear Edema ([1]; 50 ug/ear topical with PMA 2 microgram per ear): 88.0%
- Inhibition of Mouse Ear Edema ([1]; 100 ug/ear topical with PMA 2 microgram per ear): 96.2%
- topical anti-inflammatory activity ([1]; topical, statement in words): exhibit topical anti-inflammatory activity
- Inhibition of Mouse Ear Edema ([2]; time of addition 0 mins): 82.8%
- Inhibition of Mouse Ear Edema ([2]; time of addition +30 mins): 50.9%
- Inhibition of Mouse Ear Edema ([2]; time of addition +60 mins): 12.0%
- Inhibition of Mouse Ear Edema ([2]; time of addition -30 mins): 79.4%
- Inhibition of Mouse Ear Edema ([2]; time of addition -60 mins): 51.8%
- Inhibition of Mouse Ear Edema ([3]; 25 mg/kg IP): 28.0%
- Inhibition of Mouse Ear Edema ([3]; 50 mg/kg IP): 55.0%
- Inhibition of Mouse Ear Edema ([3]; 100 mg/kg IP): 48.0%
